Reference: ChEMBL document CHEMBL4340517, “Synthesis and biological evaluation of 7-substituted cycloberberine derivatives as potent antibacterial agents against MRSA” (2019)
In brackets after ≈: the same amount, converted by molar mass.

Legend:
Type in all cases: functional
[1] = system: Staphylococcus aureus; assay: Antibacterial activity against methicillin-resistant Staphylococcus aureus ATCC 33591 after 18 hrs by agar dilution method; conditions: ATCC 33591, 18 h
[2] = system: Staphylococcus aureus; assay: Antibacterial activity against VAN-intermediate Staphylococcus aureus ATCC 700698 after 18 hrs by agar dilution method; conditions: ATCC 700698, 18 h
[3] = system: Staphylococcus aureus; assay: Antibacterial activity against methicillin-sensitive Staphylococcus aureus ATCC 29213 after 18 hrs by agar dilution method; conditions: ATCC 29213, 18 h
[4] = system: Enterococcus faecalis; assay: Antibacterial activity against VAN-sensitive Enterococcus faecalis ATCC 29212 after 18 hrs by agar dilution method; conditions: ATCC 29212, 18 h
[5] = system: Staphylococcus epidermidis; assay: Antibacterial activity against methicillin-resistant Staphylococcus epidermidis 13-3 after 18 hrs by agar dilution method; conditions: 13-3, 18 h
[6] = system: Enterococcus faecalis; assay: Antibacterial activity against VAN-resistant Enterococcus faecalis ATCC 51299 after 18 hrs by agar dilution method; conditions: ATCC 51299, 18 h
[7] = system: Enterococcus faecium; assay: Antibacterial activity against VAN-resistant Enterococcus faecium ATCC 700221 after 18 hrs by agar dilution method; conditions: ATCC 700221, 18 h

| Compound | MIC [1] [µg/mL] | MIC [2] [µg/mL] | MIC [3] [µg/mL] | MIC [4] [µg/mL] | MIC [5] [µg/mL] | MIC [6] [µg/mL] | MIC [7] [µg/mL] |
| --- | --- | --- | --- | --- | --- | --- | --- |
| C=CCc1c2c(OC)c(OC)ccc2c2ccc3c4c(cc5c3c2[n+]1CC5)OCO4.[Br-] | 16 | 16 | 16 | 16 | 8 | 16 | 16 |
| COc1cc2c3c(ccc4c5ccc(OC)c(OC)c5c(-c5ccccc5)[n+](c43)CC2)c1OC.[Br-] | 16 | 32 | 4 | 32 | 4 | 32 | > 128 |
| CCCc1cc2c3ccc(OC)c(OC)c3c[n+]3c2c2c(cc4c(c12)OCO4)CC3.[Cl-] | 16 | 8 | 2 | 8 | 4 | 8 | 8 |
| CCc1cc2c3ccc(OC)c(OC)c3c[n+]3c2c2c(cc4c(c12)OCO4)CC3.[Cl-] | 4 | 16 | 2 | 8 | 1 | 8 | 32 |
| COc1ccc2c(c1OC)c(CC(C)C)[n+]1c3c2ccc2c4c(cc(c23)CC1)OCO4.[Br-] | 16 | 16 | 4 | 16 | 4 | 16 | 16 |
| CCc1cc2c3ccc(OC)c(OC)c3c(-c3ccc(Cl)cc3)[n+]3c2c2c(cc4c(c12)OCO4)CC3.[Br-] | 2 | 32 | 1 | 4 | 1 | 4 | 1 |
| CCc1cc2c3ccc(OC)c(OC)c3c(CC(C)C)[n+]3c2c2c(cc4c(c12)OCO4)CC3.[Br-] | 4 | 32 | 1 | 4 | 1 | 8 | 2 |
| C=Cc1c2c(OC)c(OC)ccc2c2ccc3c4c(cc5c3c2[n+]1CC5)OCO4.[Br-] | 8 | 8 | 4 | 4 | 2 | 4 | 4 |
| C=Cc1c2c(OC)c(OC)ccc2c2cc(CC)c3c4c(cc5c3c2[n+]1CC5)OCO4.[Br-] | 2 | 32 | 1 | 2 | 1 | 4 | 1 |
| COc1ccc2c(c1OC)c(C1CC1)[n+]1c3c2ccc2c4c(cc(c23)CC1)OCO4.[Br-] | 16 | 16 | 8 | 16 | 8 | 16 | 16 |
| COc1cc2c3c(ccc4c5ccc(OC)c(OC)c5c(-c5ccc(Cl)cc5)[n+](c43)CC2)c1OC.[Br-] | 8 | 16 | 2 | 16 | 2 | 8 | > 128 |
| CCc1c2c(OC)c(OC)ccc2c2ccc3c4c(cc5c3c2[n+]1CC5)OCO4.[Br-] | 16 | 64 | 4 | 16 | 4 | 16 | 8 |
| CCCCc1cc2c3ccc(OC)c(OC)c3c(-c3ccccc3)[n+]3c2c2c(cc4c(c12)OCO4)CC3.[Br-] | 2 | 32 | 1 | 2 | 1 | 4 | 1 |
| COc1cc2c3c(ccc4c5ccc(OC)c(OC)c5c(-c5ccc6c(c5)OCO6)[n+](c43)CC2)c1OC.[Br-] | 8 | 32 | 4 | 32 | 2 | 32 | > 128 |
| CCCCc1cc2c3ccc(OC)c(OC)c3c(-c3ccc(Cl)cc3)[n+]3c2c2c(cc4c(c12)OCO4)CC3.[Br-] | 1 | 32 | 1 | 1 | 1 | 2 | 1 |
| CCCc1cc2c3ccc(OC)c(OC)c3c(-c3ccccc3)[n+]3c2c2c(cc4c(c12)OCO4)CC3.[Br-] | 2 | 32 | 2 | 8 | 2 | 16 | > 128 |
| CN[C@H](CC(C)C)C(=O)N[C@H]1C(=O)N[C@@H](CC(N)=O)C(=O)N[C@H]2C(=O)N[C@H]3C(=O)N[C@H](C(=O)N[C@H](C(=O)O)c4cc(O)cc(O)c4-c4cc3ccc4O)[C@H](O)c3ccc(c(Cl)c3)Oc3cc2cc(c3O[C@@H]2O[C@H](CO)[C@@H](O)[C@H](O)[C@H]2O[C@H]2C[C@](C)(N)[C@H](O)[C@H](C)O2)Oc2ccc(cc2Cl)[C@H]1O [VANCOMYCIN] |  | 8 (≈ 5.52 µM) |  | 2 (≈ 1.38 µM) |  | 32 (≈ 22.1 µM) | 64 (≈ 44.2 µM) |
| COc1ccc2c(c1OC)c(-c1ccc(C)cc1)[n+]1c3c2ccc2c4c(cc(c23)CC1)OCO4.[Br-] | 16 | 16 | 8 | 16 | 8 | 16 | 16 |
| COc1ccc2c(c1OC)c(-c1ccc(F)cc1)[n+]1c3c2ccc2c4c(cc(c23)CC1)OCO4.[Br-] | 8 | 16 | 8 | 16 | 4 | 16 | > 128 |
| CCOc1c(OC)ccc2c1c(-c1ccccc1)[n+]1c3c2ccc2c4c(cc(c23)CC1)OCO4.[Br-] | 8 | 32 | 1 | 4 | 1 | 4 | 2 |
| COc1ccc2c(c1OC)c(-c1ccc(Cl)cc1)[n+]1c3c2ccc2c4c(cc(c23)CC1)OCO4.[Br-] | 4 | 8 | 2 | 8 | 1 | 8 | > 128 |
| CCCc1cc2c3ccc(OC)c(OC)c3c(-c3ccc(Cl)cc3)[n+]3c2c2c(cc4c(c12)OCO4)CC3.[Br-] | 8 | 32 | 2 | 16 | 4 | 32 | > 128 |
| CCCCc1cc2c3ccc(OC)c(OC)c3c[n+]3c2c2c(cc4c(c12)OCO4)CC3.[Cl-] | 4 | 16 | 4 | 16 | 32 | 32 | 16 |
| CCc1cc2c3ccc(OC)c(OC)c3c(-c3ccccc3)[n+]3c2c2c(cc4c(c12)OCO4)CC3.[Br-] | 8 | 32 | 1 | 4 | 1 | 4 | 1 |
| COc1ccc2c(c1OC)c(-c1ccc3c(c1)OCO3)[n+]1c3c2ccc2c4c(cc(c23)CC1)OCO4.[Br-] | 16 | 32 | 16 | 8 | 2 | 8 | 8 |
